From patent publication US12123876B2, “Antibody binding to HEG1 and use of the antibody for detection and treatment of mesothelioma” (Kanagawa Prefectural Hospital Organization, priority 2016, dated 2024) come the findings set out here.

The term IC50 denotes the concentration that inhibits the measured activity by half.

“Also recorded” adds a separate entry of the source. Some results are limits rather than exact numbers.

The test system of data set [1] is SKM9-2 antibody. Briefly: Western blot reactivity of human HEG1 fragments expressed in ACC-MESO-1 with SKM9-2 antibody. The format is binding, mouse. Particulars: for Binding to SKM9-2 antibody (positive/negative): Western blot of cell lysate. The protocol:
In this Example, the mesothelioma cell line ACC-MESO-1 was allowed to express a human HEG1 fragment with the endogenous HEG1 of ACC-MESO-1 knocked down, and the reactivity with the SKM9-2 antibody was examined. Subsequently, the reactivity with the antibody was tested for the epitope region through alanine scanning, and key amino acids for binding to the antibody were determined.
Gene transfer was performed with HEG1 siRNA (H9106) (SEQ ID NOs: 40, 41) and human HEG1 for the mesothelioma cell line ACC-MESO-1, and the reactivity of the SKM9-2 was examined through Western blot analysis. A full length protein (HEG1 full length) or a fragment (HEG1 3 kb, HEG1 2 kb, or HEG1 1 kb) of the human HEG1 was used. The full length human HEG1 protein, a protein having the amino acid sequence set forth in SEQ ID NO: 35, was obtained through inserting a base sequence set forth in SEQ ID NO: 34 into pFLAG-CMV1 (Sigma-Aldrich Japan K.K.) to obtain a plasmid, transforming the plasmid, and allowing the mesothelioma cell line to express the plasmid. Fragment HEG1 3 kb was obtained through inserting a fragment corresponding to a sequence from position 285, leucine, to position 1387, phenylalanine, of SEQ ID NO: 35 into pFLAG-CMV1 (Sigma-Aldrich Japan K.K.) in an in-frame manner, and allowing the mesothelioma cell line to express the resultant. HEG1 2 kb and HEG1 1 kb were obtained through allowing the mesothelioma cell line to express products similarly obtained from a fragment corresponding to a sequence from position 677, leucine, to position 1387, phenylalanine, of SEQ ID NO: 35 and a fragment corresponding to a sequence from position 992, valine, to position 1387, phenylalanine, of SEQ ID NO: 35, respectively. Each cell lysate was analyzed through Western blot with the SKM9-2 antibody.
Further, the region in exon 7 of HEG1 was analyzed in detail. […]
(Immunoblotting shows a protein as a band on a membrane.)

The target of data set [2] is recombinant human intelectin-1 (Homo sapiens, UniProt Q8WWA0, V109D). Briefly: Biacore inhibition of intelectin binding to diol structure. The conditions noted are these: inhibition of intelectin (0.5 μg/mL) binding. Here is the method: The binding between intelectin and the diol SEPHAROSE® (crosslinked, beaded-form of agarose) beads was inhibited in the presence of another compound with diol structure. An experiment was conducted in which binding of recombinant human intelectin-1 to a sensor chip including 3-Amino-1-propanediol fixed thereto via amino groups was measured by using a Biacore (GE Healthcare Bio-Sciences AB) in the presence of various compounds serially diluted, where intelectin was used with a final concentration of 0.5 μg/mL, and 10 mM HEPES buffer (pH 7.0) containing 1 mM CaCl2), 150 mM NaCl, and 0.03% TWEEN® 20 (polyethylene glycol sorbitan monolaurate, polyoxyethylenesorbitan monolaurate) was used as buffer for measurement, and the binding rate of intelectin was determined for each sample as the degree of binding of intelectin measured for a sample without addition of compound was defined as a binding rate of 100%.
(SPR reads the build-up and loss of mass on a sensor chip optically.)

Data set [3] has as its system NCI-H2452 cells. As to the kind of experiment: Cell proliferation after HEG1 knock-down, NCI-H2452. The format is cell-based. Particulars: NCI-H2452, another mesothelioma cell line.
Data set [4] relates to HEK-293T cells. Briefly: Cell proliferation after HEG1 siRNA, HEK-293T. The format is cell-based. The conditions noted are these: which do not express HEG1.

Sequence of recombinant human intelectin-1 (Q8WWA0 19-298 V109D): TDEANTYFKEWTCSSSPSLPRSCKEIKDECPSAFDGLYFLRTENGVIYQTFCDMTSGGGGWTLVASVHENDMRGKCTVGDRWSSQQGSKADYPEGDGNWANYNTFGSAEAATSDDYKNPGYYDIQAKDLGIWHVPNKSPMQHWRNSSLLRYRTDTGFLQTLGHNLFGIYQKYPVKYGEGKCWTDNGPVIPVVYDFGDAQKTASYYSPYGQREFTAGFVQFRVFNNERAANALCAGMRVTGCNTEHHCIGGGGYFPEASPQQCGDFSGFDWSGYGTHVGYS

In the case of “7.6231: SEQ ID NO: 49 (SKSPSLVSLPTE) bonded to SLURPgpi (GGSKSPSLVSLPTEGG; 7.6231 - SLURPgpi (7.6231))”, the “Binding to SKM9-2 antibody (positive/negative)” value in data set [1] was “positive”; in data set [1] (listed as fragment 7.6231) it was “positive signal”. Further, the “Reaction with SKM9-2 antibody after neuraminidase treatment” value in data set [1] (lysate treated with neuraminidase, listed as fragment 7.6231) was “disappeared; also recorded: does not react”.
On to `CCC(O)CO` (stereo not shown) [1,2-Butanediol], for which, in data set [2], the IC50 is ≤ 1 mM.
Still for that read-out and setting: the result for `CC(O)CO` (stereo not shown) [1,2-Propanediol] reads 0.9 mM.
Consider `C[C@@H](O)CO` [(R)-1,2-Propanediol], for which the IC50 in data set [2] was 1 mM.
Turning to `O=C[C@H](O)[C@H](O)[C@H](O)CO` [D-Ribose], in data set [2], the IC50 is ≤ 1 mM.
For `OCC(O)CO` [Glycerol], the IC50 in data set [2] was ≤ 1 mM.
With `O=C1O[C@H]([C@@H](O)CO)C(O)=C1O` [L-Ascorbic acid], the IC50 in data set [2] was ≤ 1 mM.
`O=C[C@@H](O)[C@@H](O)[C@@H](O)CO` [L-Ribose]: in data set [2], the IC50 was ≤ 1 mM.
Turning to `CCCC(=O)OCC(O)CO` (stereo not shown) [Monobutyrin], in data set [2], the IC50 came to 0.8 mM.
For the molecule “H2674: siRNA for human HEG1; sense SEQ ID NO: 25 CCUAUAGCCGUACAGACUACA, antisense SEQ ID NO: 26; called HEG1 siRNA in b178 (antisense UAGUCUGUACGGCUAUAGGGC; listed as RNA, chemistry not given here)”, the Cell proliferation entry in data set [3] is given as “suppressed cell proliferation”; in data set [4], “not affected”.
